# Experimental data as given in article PMC10304470, “Characterization of the Antimicrobial Activities of Trichoplusia ni Cecropin A as a High-Potency Therapeutic against Colistin-Resistant Escherichia coli” (Pharmaceutics, 2023).
# Peptide text beside a SMILES is read from it.
# Experiments:
# [1] = tested on: colistin-resistant K. pneumoniae NMS 139 (ColRKP 139); assay type: cell-based, Klebsiella pneumoniae; settings: MH broth, 2 × 10^5 cells/mL, 16 h, 37 °C, OD600, >95% killing
# Excerpt: (§1) E. coli (KCTC 1682) was obtained from the Korean Collection for Type Cultures (KCTC, Jeongeup, Republic of Korea), and Acinetobacter baumannii (KCCM 40203) and Pseudomonas aeruginosa (KCCM 11328) from the Korea Culture Center of Microorganisms (KCCM, Seoul, Republic of Korea). Klebsiella pneumoniae (NCCP 16054), colistin-resistant E. coli NMA 1557 (ColREC 1557), NMS 12 (ColREC 12), and colistin-resistant A. baumannii NMS 1915 (ColRAB 1915), as well as colistin-resistant K. pneumoniae NMS 139 (ColRKP 139), were obtained from the National Institute of Health Multidrug Resistant Bacteria Specialized Pathogen Resources Bank (Osong, Republic of Korea).
# (§2) The antibacterial abilities of the peptides (T. ni cecropin, cecropin A, polymyxin B, colistin, and melittin) were determined using the broth dilution method as previously reported. The peptides dissolved at 10 mg/mL in deionized water were serially diluted from 64 μM to 0.5 μM in 96-well plates using Mueller–Hinton (MH) broth, and bacteria cultured to exponential growth were added at 2 × 10^5 cells/mL. The group of bacteria that grew untreated in the broth was set as the positive control, and the uninoculated broth as the negative control. Dissolved peptides are colorless and equal to the OD value of the medium only. After 16 h incubation at 37 °C, the absorbance at 600 nm was measured using a SpectraMAX microplate reader (Molecular Devices, San Jose, CA, USA).
# RAW 264.7 cells = assay: Cytotoxicity, WST-8; assay type: cell-based, mouse; settings: 100 μM peptide, 24 h
# Method: (§3) Murine macrophage RAW 264.7 cells and mouse fibroblast L-929 cells were used for research and were purchased from the Korea Cell Line Bank (Seoul, Republic of Korea). Both cells were cultured in Dulbecco’s Modified Eagle’s Medium (DMEM; Welgene, Gyeongsan, Republic of Korea) supplemented with 10% fetal bovine serum and 1% antibiotics (penicillin/streptomycin) at 37 °C in the presence of 5% CO2. To measure the cytotoxicities of peptides against RAW 264.7 cells and L-929 cells, both cell lines were seeded at a density of 1 × 10^5 cells/well in a 96-well plate, to which each concentration of peptide solution (from 1.6 μM to 100 μM) was added, followed by incubation for 22 h. Subsequently, WST-8 (Biomax Co., Ltd., Guri, Republic of Korea) was added at 10% volume of the final solution, and the mixture was incubated for an additional 2 h. Absorbance was measured at 450 nm. Percentages were calculated based on untreated cells.
# L-929 cells = assay: Cytotoxicity, WST-8; assay type: cell-based, mouse; settings: up to 100 μM peptide, 24 h
# Method: as §3
# E. coli (KCTC 1682) = assay type: cell-based, Escherichia coli; settings: KCTC 1682, 16 h
# Excerpt: as §1, §2
# [2] = tested on: colistin-resistant E. coli NMA 1557 (ColREC 1557); assay type: cell-based, Escherichia coli; settings: MH broth, 2 × 10^5 cells/mL, 16 h, 37 °C, OD600, >95% killing
# Excerpt: as §1, §2
# [3] = tested on: colistin-resistant E. coli NMS 12 (ColREC 12); assay type: cell-based, Escherichia coli; settings: MH broth, 2 × 10^5 cells/mL, 16 h, 37 °C, OD600, >95% killing
# Excerpt: as §1, §2
# [4] = tested on: sheep red blood cells (sRBCs); assay: Hemolysis; assay type: cell-based; settings: 100 μM peptide, 1 h, 37 °C
# Method: Sheep red blood cells (sRBCs; KisanBio, Seoul, Republic of Korea) were added to three volumes of phosphate-buffered saline (PBS; 35 mM phosphate buffer containing 150 mM NaCl, pH 7.4) and centrifuged five times at 4 °C, 1000× g for 5 min, followed by a final suspension in PBS at 4% (w/v). Peptides serially diluted from 100 μM to 3.1 μM in PBS at 100 μL in a 96-well plate were prepared, and an equal volume of blood solution was added. After incubation at 37 °C for 1 h, the plates were centrifuged for 5 min at 4 °C, 1000× g. The absorbance of the supernatant was measured at 405 nm. The 100% hemolysis control was 0.1% Triton-X 100 added to the blood solution; the negative control was blood solution added to PBS.
# [5] = tested on: LPS-stimulated RAW 264.7 cells; assay: IL-6 secretion in LPS-stimulated macrophages, ELISA; assay type: cell-based, mouse; settings: 5 μM peptide, 1 h pretreatment, 20 ng/mL LPS, 16 h
# Method: Murine macrophage RAW 264.7 cells were used to measure the anti-inflammatory activities of peptides. Culture plates (96-well) were seeded at a density of 1 × 10^5 cells/well and stimulated with 20 ng/mL LPS (O111:B4; Sigma-Aldrich) for 16 h after 1 h pretreatment with each concentration of peptide (0.6 to 10 μM). The control is an untreated cell. The culture supernatant was added to an equal volume of Griess reagent (Sigma-Aldrich), and the absorbance was measured at 540 nm. Nitrite production was quantified using a standard curve constructed using NaNO2.
# Interleukin-6 (IL-6)-specific enzyme-linked immunosorbent assays (ELISA; R&D Systems, Minneapolis, MN, USA) were performed according to the method specified by the manufacturer. Briefly, cell culture supernatants were added to immune plates treated with the capture antibody, followed by the detection antibody and streptavidin-horseradish peroxidase. For each step, the plates were washed twice with PBS containing 0.05% Tween 20. The plates were incubated with tetramethylbenzidine substrate (Invitrogen, Carlsbad, CA, USA), and the reaction was stopped with 2 N H2SO4 to measure absorbance at 450 nm. A standard graph of each marker was plotted and quantified.
# [6] = tested on: colistin-resistant A. baumannii NMS 1915 (ColRAB 1915); settings: MH broth, 2 × 10^5 cells/mL, 16 h, 37 °C, OD600, >95% killing
# Excerpt: as §1
# as §2, with “The” for “The antibacterial abilities of the peptides (T. ni cecropin, cecropin A, polymyxin B, colistin, and melittin) were determined using the broth dilution method as previously reported. The”
# all bacterial strains = assay: Average MIC over all strains and relative selective index; assay type: cell-based; settings: 8 strains; MIC above 64 μM taken as 128 μM
# Method: as §2
smiles,measurement,setting,value
"CC[C@H](C)CCCCC(=O)N[C@@H](CCN)C(=O)N[C@H](C(=O)N[C@@H](CCN)C(=O)N[C@H]1CCNC(=O)[C@H]([C@@H](C)O)NC(=O)[C@H](CCN)NC(=O)[C@H](CCN)NC(=O)[C@H](CC(C)C)NC(=O)[C@@H](CC(C)C)NC(=O)[C@H](CCN)NC1=O)[C@@H](C)O [colistin] (HELM PEPTIDE1{[CC[C@H](C)CCCCC(=O)[*:2]].[Dab].T.[Dab].[Dab].[Dab].[dL].L.[Dab].[Dab].T}$PEPTIDE1,PEPTIDE1,5:R3-11:R2$$$V2.0; N-terminus assumed; bridges inferred)",Minimal Inhibitory Concentration,[1],>64 µM
same,cell viability,RAW 264.7 cells,70.1%
same,viability / survival rate,L-929 cells,95.0%
same,Minimal Inhibitory Concentration,E. coli (KCTC 1682),0.25 µM
same,Minimal Inhibitory Concentration,[2],8 µM
same,Minimal Inhibitory Concentration,[3],4 µM
same,hemolytic activity,[4],no hemolytic activity
same,inhibition of IL-6 secretion,[5],over 90%
same,Minimal Inhibitory Concentration,[6],>64 µM
same,"GM (geometric mean, average MIC value of all bacterial strains)",all bacterial strains,33.72 µM
